Legend:
[1] = human, in vivo; cited from earlier work
[2] = in vitro; conditions: rat, plasma
Experimental: (§1) The stabilities of prodrugs were evaluated in one or more in vitro systems using a variety of tissue preparations following methods known in the art. The chemical stability of prodrugs in aqueous buffers at pH's of 2.0, 7.4 and 8.0 were also measured. […] Each preparation was incubated with test compound at 37°C for one hour. Aliquots (50 µL) were removed at 0, 30, and 60 min and quenched with 0.1 % trifluoroacetic acid in acetonitrile.

[3] = in vitro; conditions: human
Experimental: For stability studies, prodrug (5 µM) was incubated in Caco-2 homogenate S9 fraction (0.5 mg protein per mL) for 60 min at 37°C. Concentrations of intact prodrug and released baclofen were determined at zero time and 60 minutes using LC/MS/MS.

[4] = in vitro; conditions: human; for remaining at 1 h, 2 µM: liver s9, % of Prodrug Remaining
Experimental: as §1

[5] = physchem; conditions: aqueous buffer
Experimental: as §1

[6] = Pancreatin stability; format: in vitro ADME, porcine; conditions: pig, 5 µM, pH 7.5, 37 °C, after 60 min; for metabolised at 1 h, 5 µM: pancreatin, pH 7.5, 1 % (w/v) pancreatin, read-out: % of Baclofen Released; for remaining at 1 h, 5 µM: 1 % (w/v) pancreatin, read-out: % of Prodrug Remaining
Experimental: Pancreatin Stability: Stability studies were conducted by incubating prodrug (5 µM) with 1 % (w/v) pancreatin (Sigma, P-1625, from porcine pancreas) in 0.025 M Tris buffer containing 0.5 M NaCl (pH 7.5) at 37 °C for 60 min. The reaction was stopped by addition of 2 volumes of methanol. After centrifugation at 14,000 rpm for 10 min, the supernatant was removed and analyzed by LC/MS/MS.

[7] = in vitro; conditions: rat; for remaining at 1 h, 2 µM: liver s9, % of Prodrug Remaining
Experimental: as §1

[8] = in vitro; conditions: human, plasma
Experimental: as §1

[9] = in vitro; conditions: human, Caco-2
Experimental: (§2) For example, cellular permeability may be evaluated by examining the flux of a prodrug across a cultured polarized cell monolayer (e.g., Caco-2 cells). Caco-2 cells obtained from continuous culture (passage less than 28) were seeded at high density onto Transwell polycarbonate filters. Cells were maintained with DMEM / 10% fetal calf serum + 0.1 mM nonessential amino acids + 2 mM L-Gln, 5% CO2/ / 95% O2, 37°C until the day of the experiment. Permeability studies were conducted at pH 6.5 apically (in 50 mM MES buffer containing 1 mM CaCl2, 1mM MgCl2, 150 mM NaCl, 3 mM KCl, 1 mM NaH2PO4, 5 mM glucose) and pH 7.4 basolaterally (in Hanks' balanced salt solution containing 10 mM HEPES) in the presence of efflux pump inhibitors (250 µM MK-571, 250 µM Verapamil, 1 mM Ofloxacin). Inserts were placed in 12 or 24 well plates containing buffer and incubated for 30 min at 37C°. Prodrug (200 µM) was added to the apical or basolateral compartment (donor) and concentrations of prodrug and/or released parent drug in the opposite compartment (receiver) were determined at intervals over 1 hour using LC/MS/MS. Values of apparent permeability (Papp) were calculated using the equation: Papp = Vr (dC/dt)//(ACo) [formula]
(§3) Here Vr is the volume of the receiver compartment in mL; dC/dt is the total flux ofprodrug and parent drug (µM/s), determined from the slope of the plot of concentration in the receiver compartment versus time; Co is the initial concentration of prodrug in µM; A is the surface area of the membrane in cm^2.

[10] = tested on: Caco-2 cells; conditions: human, Caco-2, 200 uM
Experimental: as §2, §3

[11] = Caco-2 cellular permeability of prodrugs; conditions: human
Experimental: as §2, §3

[12] = format: in vivo; conditions: cynomolgus monkeys, intravenous bolus, 1.2 mg/kg
Experimental: R-Baclofen hydrochloride salt was administered to four male cynomolgus monkeys as an aqueous solution by intravenous bolus injection into the saphenous vein at a dose of 1.2 mg/kg. Blood samples were obtained from all animals at intervals over 24 hours post-dosing. Blood was processed immediately for plasma at 4°C. All plasma samples were subsequently analyzed for R-baclofen using the LC/MS/MS assay described above. The mean R-baclofen exposure AUCinf = 3.6 h.µg/mL.

| Compound | metabolised at 1 h, 2 µM [2] | metabolised at 1 h, 5 µM ([3]; s9) | metabolised at 1 h, 2 µM ([4]; s9) | degraded at 1 h ([5]; pH 2) | degraded at 1 h ([5]; pH 7.4) | degraded at 1 h ([5]; pH 8) | metabolised at 1 h, 5 µM [6] | remaining at 1 h, 5 µM [6] | metabolised at 1 h, 2 µM ([7]; s9) | metabolised at 1 h, 2 µM [8] | Papp A→B at 200 µM [9] | Papp B→A at 200 µM [9] | also measured |
| --- | --- | --- | --- | --- | --- | --- | --- | --- | --- | --- | --- | --- | --- |
| NCC(CC(=O)O)c1ccc(Cl)cc1 (racemic) [Baclofen, (±)-4-Amino-3-(4-chlorophenyl)butanoic acid] | – | – | – | – | – | – | – | – | – | – | – | – | elimination half-life [1]: 3 to 4 h |
| CCCC(=O)OCOC(=O)NC[C@H](CC(=O)O)c1ccc(Cl)cc1 [(16), Sodium 4-[(Butanoyloxymethoxy)carbonylamino]-(3R)-(4-chlorophenyl)-butanoate] | 40% | 100% | 100% | 0% | 0% | 0% | 84% | 1% | 100% | 20% | 6.1 ×10⁻⁶ cm/s | 1.2 ×10⁻⁶ cm/s | – |
| CC(C)C(=O)OCOC(=O)NC[C@H](CC(=O)O)c1ccc(Cl)cc1 [(18), Sodium 4-[(Isobutanoyloxymethoxy)carbonylamino]-(3R)-(4-chlorophenyl)-butanoate] | 60% | 100% | 100% | 0% | 0% | 0% | 91% | 2% | 100% | 27% | 6.4 ×10⁻⁶ cm/s | 5.6 ×10⁻⁶ cm/s | – |
| CCCC(=O)OC(OC(=O)NC[C@H](CC(=O)O)c1ccc(Cl)cc1)C(C)C (some centres unmarked) [(27)] | 88% | – | – | – | – | – | 9% | 71% | – | – | – | – | Ratio A-BB-A [10]: 6.9; Papp A→B at 200 µM [11]: 65 ×10⁻⁶ cm/s; Papp B→A at 200 µM [11]: 9.4 ×10⁻⁶ cm/s; metabolised at 1 h, 5 µM ([3]; caco-2 homogenate s9): 67%; metabolised at 1 h, 2 µM ([4]; liver s9): 79%; remaining at 1 h, 2 µM [4]: 8%; degraded at 1 h ([5]; pH 2, % of Baclofen Released): 0%; degraded at 1 h ([5]; pH 7.4, % of Baclofen Released): 0%; degraded at 1 h ([5]; pH 8, % of Baclofen Released): 1%; metabolised at 1 h, 2 µM ([7]; liver s9): 89%; remaining at 1 h, 2 µM [7]: 0%; metabolised at 1 h, 2 µM ([8]; % of Baclofen Released): 12% |
| CC(=O)OC(C)OC(=O)NC[C@H](CC(=O)O)c1ccc(Cl)cc1 (stereo partly drawn) [(30), Sodium 4-[(1-Acetoxyethoy)carbonylamino]-(3R)-(4-chlorophenyl)-butanoate] | 42% | 70% | 87% | 0% | 1% | 3% | 9% | 90% | 85% | 8% | 8.7 ×10⁻⁶ cm/s | 2.3 ×10⁻⁶ cm/s | – |
| CC(C)C(OC(=O)NC[C@H](CC(=O)O)c1ccc(Cl)cc1)OC(=O)C(C)(C)C (stereo partly drawn) [(43), Sodium 4-[(1-Pivaloyloxyisobutoxy)carbonylamino]-(3R)-(4-chlophenyl)-butanoate] | 29% | – | – | – | – | – | 4% | 82% | – | – | – | – | Ratio A-BB-A [10]: 2.3; Papp A→B at 200 µM [11]: 42 ×10⁻⁶ cm/s; Papp B→A at 200 µM [11]: 18 ×10⁻⁶ cm/s; metabolised at 1 h, 5 µM ([3]; caco-2 homogenate s9): 49%; metabolised at 1 h, 2 µM ([4]; liver s9): 39%; remaining at 1 h, 2 µM [4]: 61%; degraded at 1 h ([5]; pH 2, % of Baclofen Released): 0%; degraded at 1 h ([5]; pH 7.4, % of Baclofen Released): 0%; degraded at 1 h ([5]; pH 8, % of Baclofen Released): 0%; metabolised at 1 h, 2 µM ([7]; liver s9): 97%; remaining at 1 h, 2 µM [7]: 3%; metabolised at 1 h, 2 µM ([8]; % of Baclofen Released): 2% |
| Cl.NC[C@H](CC(=O)O)c1ccc(Cl)cc1 [R-Baclofen hydrochloride salt] | – | – | – | – | – | – | – | – | – | – | – | – | mean R-baclofen exposure AUCinf [12]: 3.6 µg·h/mL |
